In EP0075047A1, “1-(Substituted phenylthiocarbamyl) 3,3-disubstituted formamidines and their production and pharmaceutical compositions containing them” (STAUFFER CHEMICAL COMPANY, priority 1981, dated 1983):
Where a name gives a salt, the structure may show the parent alone.

What was measured:
[1] = test system: carrigeenan-induced swelling; assay: Anti-edema test (carrageenin-induced hind paw edema); format: in vivo, male Wistar rats (Taiwan strain); conditions: one hour before carrigeenan, measured three hours after injection, rat
Description: (§1) The first test is for adjuvant arthritis inhibition and the second, an anti-edema test, involves the diminution of experimental edema induced in the hind paw of a rat by the injection of carrageenin.
Anti-edema effect was determined according to the test procedure recited by Winter, C.A., Risley, E. A., and Nuss, G. W., Proc. Exper. Biol. Med. 111:544-547, 1962. For this test, three male Wistar rats (Taiwan strain) weighing 100-120 g each are orally dosed with test compound dissolved or suspended in 3 ml of water. One hour later, the plantar surface of the right hind paw was injected with 0.1 ml of a 1 percent suspension of carrigeenan in saline and the left paw was similarly injected with saline only. Three hours after the injection the volume of both hind paw was measured by fluid displacement and the percent decrease in carrigeenan-induced swelling (volume of carrigeenan injected foot minus saline injected foot) was determined by comparison with untreated (no test compound) animals. Greater than 30 percent inhibition is considered evidence of an anti-edema effect.

Systolic blood pressure = assay: Anti-hypertensive screening (systolic blood pressure by tail cuff); format: in vivo, normotensive Wistar rats (Taiwan strain); conditions: 100 mg/kg oral, rat
Description: This test was run according to the test procedure recited by Nagoaka, A., Kikuchi, K. and Aramaki, Y., Jap. J. Pharmacol., 19:401-408, 1969. For this test, two normotensive Wistar rats (Taiwan strain) were placed in perspex holders and then placed in a heated chamber at 40°C for 4-6 minutes before treatment. They were maintained there throughout each experiment. Systolic blood pressure was recorded by indirect means employing a tail cuff and pneumatic sensor device applied to the base of the animals' tails. The device was coupled to a programmed Narco-Biosystems sphygmomano meter (Model PE-300), an instrument for measuring blood pressure, and Sanei polygraph. After recording suitably steady blood pressure readings, test drugs were orally administered and blood pressure checked again 2, 4 and 6 hours after drug administration. A mean decrease of more than 10 percent from the pretreatment value at any two consecutive measurement intervals is considered evidence of hypotensive effect.

adjuvant arthritis = assay: Adjuvant arthritis inhibition (hind-foot volume, primary and secondary lesions); format: in vivo, Wistar male rats (Taiwan strain); conditions: five daily doses, rat; for Percent Reduction in Edema of the Primary Lesion: injected right hind paw measured four hours after fifth dose; for Percent Reduction in Edema of the Secondary Lesion: uninjected foot measured fourteen days after adjuvant inoculation
Text: as §1
This test was run according to the test procedure recited by VanArman, G. C., Nuss, G. W. and Risley, E. A., J. Pharmacol..Exper. Terap., 187:400-413, 1973. The following is a description of the test: • The hind-foot volumes of five Wistar male. rats (Taiwan strain) weighing 130-160 g each were measured by fluid displacement immediately prior to intraplantar administration (right hind paw) of 0.1 ml of an adjuvant suspension containing 5 milligrams (mg) Mycobacterium butyricum bacilli suspended in heavy mineral oil. Test compounds were orally administered to the animals for five days beginning the day before injection of the adjuvant. Four hours after the fifth daily drug dose the volume of the right hind paw (primary lesion) was measured for determination of any acute anti-inflammatory effect. Fourteen days after adjuvant inoculation the volume of the uninjected foot was measured (secondary lesion) for determination of prolonged anti-inflammatory effect or immunosuppressant effect. The percent reduction in foot volume was calculated for each hind paw in relation to corresponding control values determined simultaneously. A greater than 30 percent reduction in volume of either paw is considered a significant effect. Reduction of the primary lesion without effect on the secondary lesion denotes acute anti-inflammatory activity of short to moderate duration.

Structure (SMILES)	Percent Mean Decrease in Systolic Blood Pressure (Systolic blood pressure; 2 hours after administration)	Percent Mean Decrease in Systolic Blood Pressure (Systolic blood pressure; 4 hours after administration)	Percent Mean Decrease in Systolic Blood Pressure (Systolic blood pressure; 6 hours after administration)	Percent Reduction in Edema of the Primary Lesion (adjuvant arthritis; 100 mg/kg oral)	Percent Reduction in Edema of the Secondary Lesion (adjuvant arthritis; 100 mg/kg oral)	Reduction of Induced Edema ([1]; 100 mg/kg oral)	also measured
CN(C)C=NC(=S)Nc1ccc(Cl)cc1 [Compound 2]							Reduction of Induced Edema ([1]; 25 mg/kg oral): 32%
C[C@](N)(Cc1ccc(O)c(O)c1)C(=O)O [α-methyl 3,4-dihydroxy-phenylalanine, reference compound]	11%	21%	19%				
Cc1ccc(NC(=S)N=CN(C)C)c(C)c1 [Compound 4]	4%	17%	15%	0%	0%		
COc1ccc(NC(=S)N=CN(C)C)cc1 [Compound 1, 1-(p-methoxyphenylthiocarbamyl) 3,3-dimethyl formamidine hydrochloride]							Reduction of Induced Edema ([1]; 5 mg/kg oral): 35%; Percent Reduction in Edema of the Primary Lesion (adjuvant arthritis; 5 mg/kg oral): 39%; Percent Reduction in Edema of the Secondary Lesion (adjuvant arthritis; 5 mg/kg oral): 35%
CCCCC1C(=O)N(c2ccccc2)N(c2ccccc2)C1=O [phenylbutazone, reference compound]						41%	
CCc1cccc(CC)c1NC(=S)N=CN(C)C [Compound 3]				39%	31%	33%	
